Data from publication PMC8160793, “Potent Antimicrobial and Antibiofilm Activities of Feleucin-K3 Analogs Modified by α-(4-Pentenyl)-Ala against Multidrug-Resistant Bacteria” (Biomolecules, 2021).
Converted amounts (≈) assume the structure as drawn. Square brackets hold non-standard residues; d marks the D form. Peptide text beside a SMILES is read from it. ξ: configuration not given here. ξαMeGly(pent-4-enyl) = C=CCCCC(C)(N)C(=O)O

How the values were obtained:
[1] = test system: A. baumannii 9840; type: cell-based, Acinetobacter baumannii; conditions: 9840, 18 h
Protocol: (§1) The minimum inhibitory concentration (MIC) of the Feleucin-K3 analogs was tested by the broth microdilution method. Sensitive bacteria and drug-resistant bacteria were diluted to 1 × 10^6 CFU/mL, according to the McFarland standards. Bacterial suspension and peptide solutions (8–128 μg/mL) were incubated at 37 °C for 18 h. The minimum concentration without obvious bacterial growth was the MIC of the peptides. The stability of the analogs in a physiological salt environment was also investigated. In brief, salt powder (450-mM NaCl) was dissolved in deionized water, and the following investigational steps were the same as those described before. The above steps were repeated several times, until the same value was obtained three times.

[2] = test system: A. baumannii 9236; type: cell-based, Acinetobacter baumannii; conditions: 9236, 18 h
Protocol: as §1

[3] = test system: A. baumannii 9234; type: cell-based, Acinetobacter baumannii; conditions: 9234, 18 h
Protocol: as §1

[4] = test system: A. baumannii 91105; type: cell-based, Acinetobacter baumannii; conditions: 91105, 18 h
Protocol: as §1

[5] = test system: A. baumannii ATCC 19606; type: cell-based, Acinetobacter baumannii; conditions: ATCC 19606, 18 h
Protocol: as §1

[6] = test system: A. baumannii 822144; type: cell-based, Acinetobacter baumannii; conditions: 822144, 18 h
Protocol: as §1

[7] = test system: A. baumannii 91152; type: cell-based, Acinetobacter baumannii; conditions: 91152, 18 h
Protocol: as §1

[8] = test system: A. baumannii 9331; type: cell-based, Acinetobacter baumannii; conditions: 9331, 18 h
Protocol: as §1

[9] = test system: A. baumannii 92359; type: cell-based, Acinetobacter baumannii; conditions: 92359, 18 h
Protocol: as §1

[10] = test system: A. baumannii 9336; type: cell-based, Acinetobacter baumannii; conditions: 9336, 18 h
Protocol: as §1

[11] = test system: A. baumannii 9828; type: cell-based, Acinetobacter baumannii; conditions: 9828, 18 h
Protocol: as §1

[12] = test system: A. baumannii 91199; type: cell-based, Acinetobacter baumannii; conditions: 91199, 18 h
Protocol: as §1

[13] = test system: P.aeruginosa ATCC 27853; type: cell-based, Pseudomonas aeruginosa; conditions: ATCC 27853, 24 h
Protocol: (§2) The antibiofilm activity of the peptides was determined according to the previously described methods. Strains (final concentration of 5 × 10^5 CFU/mL) and peptides (4–128 μg/mL) were incubated for 24 h at 37 °C. Biofilm cells were cleaned with 0.01-M PBS and fixed with methanol. Crystal violet (0.1%, HopeBiol, Qingdao, China) was used to stain the biofilm cells for 10 min. After washing with water, 95% ethanol was finally added, and the optical density at 595 nm was measured with a microplate reader (Flex Station 3; Laguna Hills, CA, USA).

[14] = test system: E. coli ATCC 25922; type: cell-based; conditions: ATCC 25922, 24 h
Protocol: as §2

[15] = test system: MRSA 113; type: cell-based, Staphylococcus aureus; conditions: 113, 18 h
Protocol: as §1

[16] = test system: MRSA 74; type: cell-based, Staphylococcus aureus; conditions: 74, 18 h
Protocol: as §1

[17] = test system: MRSA 54; type: cell-based, Staphylococcus aureus; conditions: 54, 18 h
Protocol: as §1

[18] = test system: MRSA 51; type: cell-based, Staphylococcus aureus; conditions: 51, 18 h
Protocol: as §1

[19] = test system: MRSA 52; type: cell-based, Staphylococcus aureus; conditions: 52, 18 h
Protocol: as §1

[20] = test system: MRSA 71; type: cell-based, Staphylococcus aureus; conditions: 71, 18 h
Protocol: as §1

[21] = test system: S. aureus 725; type: cell-based, Staphylococcus aureus; conditions: 725, 18 h
Protocol: as §1

[22] = test system: MRSA ATCC 33591; type: cell-based, Staphylococcus aureus; conditions: ATCC 33591, 18 h
Protocol: as §1

[23] = test system: MRSA 23; type: cell-based, Staphylococcus aureus; conditions: 23, 18 h
Protocol: as §1

[24] = test system: MRSA 936; type: cell-based, Staphylococcus aureus; conditions: 936, 18 h
Protocol: as §1

[25] = test system: S. aureus ATCC 25923; type: cell-based, Staphylococcus aureus; conditions: ATCC 25923, 18 h
Protocol: as §1

[26] = test system: MRSA 75; type: cell-based, Staphylococcus aureus; conditions: 75, 18 h
Protocol: as §1

[27] = test system: MRSA 48; type: cell-based, Staphylococcus aureus; conditions: 48, 18 h
Protocol: as §1

[28] = test system: S. aureus 794; type: cell-based, Staphylococcus aureus; conditions: 794, 18 h
Protocol: as §1

[29] = test system: mouse RBCs; assay: Hemolytic activity; type: cell-based; conditions: equal volume of 8% RBC suspension, 1 h, OD 490 nm, Triton X-100 positive control; for hemolysis rate at 128 µg/mL: peptide 128 µg/mL (maximum concentration)
Protocol: Mouse red blood cells (RBCs) were collected using the eyeball removal method to investigate the hemolytic activity of the Feleucin-K3 analogs. Then, these analogs were incubated with the same volume of 8% RBC suspension for 1 h. After centrifugation for 10 min, 100 μL of supernatant was withdrawn, and the optical density at 490 nm was detected. The hemolysis rate of the cells treated with 0.1% Triton X-100 (Solarbio, Beijing, China) was used as a positive control, and PBS was used as a negative control.

[30] = test system: E. coli ATCC 25922; type: cell-based; conditions: ATCC 25922, 18 h
Protocol: as §1

[31] = test system: MRSA ATCC 33591; type: cell-based, Staphylococcus aureus; conditions: ATCC 33591, 24 h
Protocol: as §2

[32] = test system: S. aureus ATCC 25923; type: cell-based, Staphylococcus aureus; conditions: ATCC 25923, 24 h
Protocol: as §2

In the case of `C=CCCCC(C)(N)C(=O)N[C@@H](CC(C)C)C(=O)N[C@@H](CCCCN)C(=O)N[C@@H](CC(C)C)C(=O)N[C@@H](CC(C)C)C(=O)N[C@@H](CCCCN)C(=O)N[C@@H](CCCCN)C(=O)N[C@@H](CC(C)C)C(=O)N[C@@H](CC(C)C)C(N)=O` (stereo partly shown) [Feleucin-K65] (H-[ξαMeGly(pent-4-enyl)]LKLLKKLL-NH2), the “MIC, A. baumannii 9840” value [1] is reported as 4 µg/mL (≈ 3.61 µM), the “MIC, A. baumannii 9236” value [2] is reported as 4 µg/mL (≈ 3.61 µM) and the “MIC, A. baumannii 9234” value [3] is reported as 4 µg/mL (≈ 3.61 µM). The “MIC, A. baumannii 91105” value [4] was 4 µg/mL (≈ 3.61 µM), the “MIC, A. baumannii ATCC 19606” value [5] was 4 µg/mL (≈ 3.61 µM) and the “MIC, A. baumannii 822144” value [6] was 8 µg/mL (≈ 7.23 µM). The “MIC, A. baumannii 91152” value [7] was 4 µg/mL (≈ 3.61 µM), the “MIC, A. baumannii 9331” value [8] was 8 µg/mL (≈ 7.23 µM) and the “MIC, A. baumannii 92359” value [9] was 4 µg/mL (≈ 3.61 µM). The “MIC, A. baumannii 9336” value [10] was 4 µg/mL (≈ 3.61 µM), the “MIC, A. baumannii 9828” value [11] was 4 µg/mL (≈ 3.61 µM) and the “MIC, A. baumannii 91199” value [12] was 4 µg/mL (≈ 3.61 µM). For the same compound, the “MBIC50, P.aeruginosa ATCC 27853” value [13] was 8 µg/mL, the “MBIC90, P.aeruginosa ATCC 27853” value [13] was 16 µg/mL and the “MBIC50, E. coli ATCC 25922” value [14] was 16 µg/mL. For the same compound, the “MBIC90, E. coli ATCC 25922” value [14] was 32 µg/mL, the “MIC, MRSA 113” value [15] was 8 µg/mL (≈ 7.23 µM) and the “MIC, MRSA 74” value [16] was 4 µg/mL (≈ 3.61 µM). For the same compound, the “MIC, MRSA 54” value [17] was 4 µg/mL (≈ 3.61 µM), the “MIC, MRSA 51” value [18] was 8 µg/mL (≈ 7.23 µM) and the “MIC, MRSA 52” value [19] was 4 µg/mL (≈ 3.61 µM). The “MIC, MRSA 71” value [20] was 4 µg/mL (≈ 3.61 µM), the “MIC, S. aureus 725” value [21] was 4 µg/mL (≈ 3.61 µM) and the “MIC, MRSA ATCC 33591” value [22] was 4 µg/mL (≈ 3.61 µM). The “MIC, MRSA 23” value [23] was 4 µg/mL (≈ 3.61 µM), the “MIC, MRSA 936” value [24] was 4 µg/mL (≈ 3.61 µM) and the “MIC, S. aureus ATCC 25923” value [25] was 8 µg/mL (≈ 7.23 µM). The “MIC, MRSA 75” value [26] was 4 µg/mL (≈ 3.61 µM), the “MIC, MRSA 48” value [27] was 4 µg/mL (≈ 3.61 µM) and the “MIC, S. aureus 794” value [28] was 8 µg/mL (≈ 7.23 µM). For the same compound, the “hemolysis rate at 64 µg/mL” value ([29]; peptide 64 µg/mL) was 9.08%, the “hemolysis rate at 128 µg/mL” value [29] was 31.6% and the “MIC, E. coli ATCC 25922” value [30] was 8 µg/mL (≈ 7.23 µM). For the same compound, the “MBIC50, MRSA ATCC 33591” value [31] was 8 µg/mL, the “MBIC90, MRSA ATCC 33591” value [31] was 8 µg/mL and the “MBIC50, S. aureus ATCC 25923” value [32] was 8 µg/mL. The “MBIC90, S. aureus ATCC 25923” value [32] was 16 µg/mL.

`C=CCCCC(C)(NC(=O)[C@H](CC(C)C)NC(=O)[C@H](CCCCN)NC(=O)[C@H](CCCCN)NC(=O)[C@H](CC(C)C)NC(=O)[C@H](CC(C)C)NC(=O)[C@H](CCCCN)NC(=O)[C@H](CC(C)C)NC(=O)[C@@H](N)Cc1ccccc1)C(N)=O` (stereo partly shown) [Feleucin-K70] (H-FLKLLKKL[ξαMeGly(pent-4-enyl)]-NH2) was tested, and the “MIC, A. baumannii 9840” value [1] was 8 µg/mL (≈ 7.01 µM), the “MIC, A. baumannii 9236” value [2] was 8 µg/mL (≈ 7.01 µM) and the “MIC, A. baumannii 9234” value [3] was 8 µg/mL (≈ 7.01 µM). The “MIC, A. baumannii 91105” value [4] was 4 µg/mL (≈ 3.51 µM), the “MIC, A. baumannii ATCC 19606” value [5] was 8 µg/mL (≈ 7.01 µM) and the “MIC, A. baumannii 822144” value [6] was 8 µg/mL (≈ 7.01 µM). The “MIC, A. baumannii 91152” value [7] was 8 µg/mL (≈ 7.01 µM), the “MIC, A. baumannii 9331” value [8] was 16 µg/mL (≈ 14 µM) and the “MIC, A. baumannii 92359” value [9] was 8 µg/mL (≈ 7.01 µM). The “MIC, A. baumannii 9336” value [10] was 8 µg/mL (≈ 7.01 µM), the “MIC, A. baumannii 9828” value [11] was 8 µg/mL (≈ 7.01 µM) and the “MIC, A. baumannii 91199” value [12] was 8 µg/mL (≈ 7.01 µM). The “MBIC50, P.aeruginosa ATCC 27853” value [13] was 8 µg/mL, the “MBIC90, P.aeruginosa ATCC 27853” value [13] was 16 µg/mL and the “MBIC50, E. coli ATCC 25922” value [14] was 8 µg/mL. The “MBIC90, E. coli ATCC 25922” value [14] was 32 µg/mL, the “MIC, MRSA 113” value [15] was 8 µg/mL (≈ 7.01 µM) and the “MIC, MRSA 74” value [16] was 8 µg/mL (≈ 7.01 µM). The “MIC, MRSA 54” value [17] was 8 µg/mL (≈ 7.01 µM), the “MIC, MRSA 51” value [18] was 8 µg/mL (≈ 7.01 µM) and the “MIC, MRSA 52” value [19] was 8 µg/mL (≈ 7.01 µM). For the same compound, the “MIC, MRSA 71” value [20] was 8 µg/mL (≈ 7.01 µM), the “MIC, S. aureus 725” value [21] was 8 µg/mL (≈ 7.01 µM) and the “MIC, MRSA ATCC 33591” value [22] was 8 µg/mL (≈ 7.01 µM). The “MIC, MRSA 23” value [23] was 8 µg/mL (≈ 7.01 µM), the “MIC, MRSA 936” value [24] was 8 µg/mL (≈ 7.01 µM) and the “MIC, S. aureus ATCC 25923” value [25] was 8 µg/mL (≈ 7.01 µM). For the same compound, the “MIC, MRSA 75” value [26] was 8 µg/mL (≈ 7.01 µM), the “MIC, MRSA 48” value [27] was 8 µg/mL (≈ 7.01 µM) and the “MIC, S. aureus 794” value [28] was 8 µg/mL (≈ 7.01 µM). For the same compound, the “hemolysis rate at 128 µg/mL” value [29] was “less than 1%”, the “MIC, E. coli ATCC 25922” value [30] was 8 µg/mL (≈ 7.01 µM) and the “MBIC50, MRSA ATCC 33591” value [31] was 4 µg/mL. For the same compound, the “MBIC90, MRSA ATCC 33591” value [31] was 8 µg/mL, the “MBIC50, S. aureus ATCC 25923” value [32] was 4 µg/mL and the “MBIC90, S. aureus ATCC 25923” value [32] was 8 µg/mL.
